Measured values published in US12616716B2, “Wound healing dressings and formulations and methods of use thereof” (Polaroid IP B.V., priority 2023, dated 2026).
≈ marks a conversion by molar mass, not a printed value.

Legend:
[1] = test system: Staphylococcus aureus ATCC 29213; assay: MBC, spot plating after 24 h in MH broth; conditions: A = Staphylococcus aureus 29213
Description: (§5) To determine MBC compound concentrations breakpoints were estimated from MIC curves. Overnight cultures were set up as described above for all bacterial strains. The following day overnight cultures were adjusted to give a cell density of 5×10^5 cells per mL. Briefly, cultures were adjusted to the McFarland standard (0.08-0.12) and diluted (1:150). Adjusted cultures were inoculated into 96 well plates with 50 μL sterile Muller-Hinton broth (MHB) and 2 concentrations of each compound. […] MBC cultures were quantified by serial dilution in a 96 well plate and spot plating onto Muller-Hinton agar (MHA). MHA plates were incubated at 37° C. for 24 h and counted. Results are presented as CFU per mL.
(§6) To determine MBC compound concentrations, breakpoints were estimated from MIC curves. Overnight cultures were set up as described above for all bacterial strains. The following day overnight cultures were adjusted to give a cell density of 5×10^5 cells per mL. Briefly, cultures were adjusted to the McFarland standard (0.08-0.12) and diluted (1:150). Adjusted cultures were inoculated into 96 well plates with 50 μL sterile Muller-Hinton broth (MHB) and 2 concentrations of each compound. […] MBC cultures were quantified by serial dilution in a 96 well plate and spot plating onto Muller-Hinton agar (MHA). MHA plates were incubated at 37° C. for 24 hours and counted.
(§7) These compounds were tested for their MBC against a panel of ATCC and nosocomial bacteria.

[2] = test system: Staphylococcus aureus MR1; assay: MBC, spot plating after 24 h in MH broth; conditions: B = Staphylococcus aureus MR1
Description: as §5, §6, §7

[3] = test system: Staphylococcus aureus NRS384; assay: MBC, spot plating after 24 h in MH broth; conditions: C = Staphylococcus aureus NRS384
Description: as §5
(§8) To determine MBC compound concentrations, breakpoints were estimated from MIC curves. Overnight cultures were set up as described above for all bacterial strains. The following day overnight cultures were adjusted to give a cell density of 5×10^5 cells per mL. Briefly, cultures were adjusted to the McFarland standard (0.08-0.12) and diluted (1:150). Adjusted cultures were inoculated into 96 well plates with 50 μL sterile Muller-Hinton broth (MHB) and 2 concentrations of each compound. […] MBC cultures were quantified by serial dilution in a 96 well plate and spot plating onto Muller-Hinton agar (MHA). MHA plates were incubated at 37° C. for 24 hours and counted. […]

[4] = test system: Enterococcus faecalis EF19433; assay: MBC, spot plating after 24 h in MH broth; conditions: E = Enterococcus faecalis EF19433
Description: as §5, §6, §7

[5] = test system: Enterococcus faecalis EF51299; assay: MBC, spot plating after 24 h in MH broth; conditions: D = Enterococcus faecalis EF51299
Description: as §5, §8

[6] = test system: Klebsiella pneumoniae KL1; assay: MBC, spot plating after 24 h in MH broth; conditions: F = Klebisella pneumoniae KL1
Description: as §5, §8

[7] = test system: Pseudomonas aeruginosa 27853; assay: MBC, spot plating after 24 h in MH broth; conditions: G = Pseudomonas aeruginosa 27853
Description: as §5, §8

Escherichia coli EC25922 [8] = assay: MBC, spot plating after 24 h in MH broth; conditions: H = Escherichia coli EC25922
Description: as §5, §6, §7

[9] = test system: Staphylococcus aureus ATCC 29213; assay: MIC, broth microdilution in MH broth with resazurin; type: cell-based; conditions: Staphylococcus aureus, ATCC29213, read-out: MIC Concentration
[10] = test system: Staphylococcus aureus MR1; assay: as above; type: cell-based; conditions: Staphylococcus aureus, MR1, read-out: MIC Concentration
[11] = test system: Staphylococcus aureus NRS384; assay: as above; type: cell-based; conditions: Staphylococcus aureus, NRS384, read-out: MIC Concentration
[12] = test system: Enterococcus faecalis EF19433; assay: as above; type: cell-based; conditions: Enterococcus faecalis, EF19433, read-out: MIC Concentration
[13] = test system: Klebsiella pneumoniae KL1; assay: as above; type: cell-based; conditions: Klebsiella pneumoniae, KL1, read-out: MIC Concentration
[14] = test system: Pseudomonas aeruginosa 27853; assay: as above; type: cell-based; conditions: Pseudomonas aeruginosa, 27853, read-out: MIC Concentration
Escherichia coli EC25922 [15] = assay: as above; type: cell-based; conditions: Escherichia coli, EC25922, read-out: MIC Concentration
[16] = test system: Staphylococcus aureus NRS384; assay: Murine wound infection model, in vivo antimicrobial efficacy (bacterial CFU/wound); conditions: Study 2 pilot; daily application; 24 hrs and 72 hrs post-seeding
S. aureus NRS 384 = assay: Mouse Staphylococcus aureus-induced wound infection model, bacteria load in wound site; conditions: for Ig(CFU/wound site) 12 h p.i. / ΔIg(CFU/wound site) vs 12 h infection control / Ig(CFU/wound site) 24 h p.i. / ΔIg(CFU/wound site) vs 24 h infection control / Ig (CFU/wound site) / ΔIg(CFU/wound site) vs infection control: twice a day
Acinetobacter baumannii = assay: MIC, CLSI broth microdilution in CAMHB; type: cell-based; conditions: NCTC13304, A. baumannii (NCTC 13304)
Description: (§1) The bacterial strains tested included CLSI and NCTC reference and quality control (QC) strains from the following organism groups: Acinetobacter baumannii, Enterococcus faecalis, Escherichia coli, Klebsiella pneumoniae, Pseudomonas aeruginosa, and Staphylococcus aureus. Some strains contained molecularly characterized β-lactamase genes including carbapenemase (KPC-2) and extended-spectrum β-lactamase (SHV-18) genes.
(§2) Isolates were tested for antimicrobial susceptibility using broth microdilution methodology according to CLSI M07 (2018) and M100 (2023) guidelines. Frozen-form, 96-well MIC panels were produced. The testing medium was cation-adjusted Mueller-Hinton broth (CAMHB). Single MIC values were measured for 8 test compounds against each of the 9 strains tested. Additional MIC values were generated for levofloxacin (comparator agent) against several of the QC strains.
(§3) Compound stock solutions were prepared and allowed to mix overnight as needed. The pH of each stock solution was checked and adjusted as necessary until a minimum pH of 5.0 was achieved (pH range 5.0-7.0). Some compound stock solutions also required the addition of heat to assist in solubilization.
(§4) Current CLSI quality assurance practices were followed when performing the broth microdilution susceptibility testing. MIC values were validated by concurrently testing a control agent (levofloxacin) against CLSI-recommended QC strains including S. aureus ATCC 29213 (methicillin susceptible), E. coli ATCC 25922, Enterococcus faecalis ATCC 29212, and P. aeruginosa ATCC 27853. The initial inoculum density (target, 5×10^5 CFU/mL) during susceptibility testing was monitored by bacterial colony counts.

Enterococcus faecalis = assay: MIC, CLSI broth microdilution in CAMHB; type: cell-based
Description: as §1, §2, §3, §4

Escherichia coli = assay: MIC, CLSI broth microdilution in CAMHB; type: cell-based
Description: as §1, §2, §3, §4

Klebsiella pneumoniae = assay: MIC, CLSI broth microdilution in CAMHB; type: cell-based
Description: as §1, §2, §3, §4

Pseudomonas aeruginosa = assay: MIC, CLSI broth microdilution in CAMHB; type: cell-based; conditions: ATCC27853, P. aeruginosa (ATCC 27853)
Description: as §1, §2, §3, §4

Staphylococcus aureus = assay: MIC, CLSI broth microdilution in CAMHB; type: cell-based; conditions: ATCC29213, S. aureus (ATCC 29213)
Description: as §1, §2, §3, §4

[17] = 1 mg/ml, 10 μL/wound site, 10 μg/wound site, 12 h p.i.
[18] = 1 mg/ml, 10 μL/wound site, 10 μg/wound site, 24 h p.i.
[19] = Study II, 1 mg/ml, 10 μL/wound site
[20] = Study III, 48 h p.i., 1 mg/ml, 10 μL/wound site
[21] = Study III, 72 h p.i., 1 mg/ml, 10 μL/wound site
[22] = Study V, 0.2 mg/ml, 50 μL/wound site, 24 h p.i.
[23] = Study V, 0.2 mg/ml, 50 μL/wound site, 72 h p.i.

## CN[C@H](CC(C)C)C(=O)N[C@H]1C(=O)N[C@@H](CC(N)=O)C(=O)N[C@H]2C(=O)N[C@H]3C(=O)N[C@H](C(=O)N[C@H](C(=O)O)c4cc(O)cc(O)c4-c4cc3ccc4O)[C@H](O)c3ccc(c(Cl)c3)Oc3cc2cc(c3O[C@@H]2O[C@H](CO)[C@@H](O)[C@H](O)[C@H]2O[C@H]2C[C@](C)(N)[C@H](O)[C@H](C)O2)Oc2ccc(cc2Cl)[C@H]1O [Van]
[1]
  MBC Concentration: 0.02 µM (≈ 0.029 µg/mL)
[2]
  MBC Concentration: 0.02 µM (≈ 0.029 µg/mL)
[3]
  MBC Concentration: 0.02 µM (≈ 0.029 µg/mL)
[4]
  MBC Concentration: 0.08 µM (≈ 0.116 µg/mL)
[5]
  MBC Concentration: 0.04 µM (≈ 0.058 µg/mL)
[6]
  MBC Concentration: 1.25 µM (≈ 1.81 µg/mL)
[7]
  MBC Concentration: 2.50 µM (≈ 3.62 µg/mL)
Escherichia coli EC25922 [8]
  MBC Concentration: 0.31 µM (≈ 0.449 µg/mL)

## CN[C@H](CC(C)C)C(=O)N[C@H]1C(=O)N[C@@H](CC(N)=O)C(=O)N[C@H]2C(=O)N[C@H]3C(=O)N[C@H](C(=O)N[C@H](C(=O)O)c4cc(O)cc(O)c4-c4cc3ccc4O)[C@H](O)c3ccc(c(Cl)c3)Oc3cc2cc(c3O[C@@H]2O[C@H](CO)[C@@H](O)[C@H](O)[C@H]2O[C@H]2C[C@](C)(N)[C@H](O)[C@H](C)O2)Oc2ccc(cc2Cl)[C@H]1O [Vancomycin]
[9]
  MIC: 0.04 µM (≈ 0.058 µg/mL)
[10]
  MIC: 0.04 µM (≈ 0.058 µg/mL)
[11]
  MIC: 0.04 µM (≈ 0.058 µg/mL)
[12]
  MIC: 5 µM (≈ 7.25 µg/mL)
[13]
  MIC: 0.63 µM (≈ 0.913 µg/mL)
[14]
  MIC: 5 µM (≈ 7.25 µg/mL)
Escherichia coli EC25922 [15]
  MIC: 0.63 µM (≈ 0.913 µg/mL)
[16]
  log reduction in wound S. aureus: 1 log
S. aureus NRS 384; [17]
  Ig(CFU/wound site) 12 h p.i.: 8.02 ± 0.35 Ig(CFU/wound site)
  ΔIg(CFU/wound site) vs 12 h infection control: −0.57 ± 0.35 Ig(CFU/wound site)
S. aureus NRS 384; [18]
  Ig(CFU/wound site) 24 h p.i.: 7.29 ± 0.32 Ig(CFU/wound site)
  ΔIg(CFU/wound site) vs 24 h infection control: −1.44 ± 0.32 Ig(CFU/wound site)
S. aureus NRS 384; Study I, 10 μL/wound site
  Ig(CFU/wound site) 12 h p.i.: 8.47 ± 0.22 Ig(CFU/wound site)
  Ig(CFU/wound site) 24 h p.i.: 7.67 ± 0.60 Ig(CFU/wound site)
  ΔIg(CFU/wound site) vs 12 h infection control: −0.11 ± 0.22 Ig(CFU/wound site)
  ΔIg(CFU/wound site) vs 24 h infection control: −1.12 ± 0.60 Ig(CFU/wound site)
S. aureus NRS 384; Study I, after twice administrations
  bacterial load decreased by, compared with 24 h infection control group: 1.12 Ig CFU/wound site
S. aureus NRS 384; Study I, single dose at 10 μg
  effect of a single dose at 12-hour post infection: not manifest
S. aureus NRS 384; [19]
  Ig(CFU/wound site) 12 h p.i.: 7.83 ± 0.44 Ig(CFU/wound site)
  Ig(CFU/wound site) 24 h p.i.: 7.50 ± 0.54 Ig(CFU/wound site)
  ΔIg(CFU/wound site) vs 12 h infection control: −0.76 ± 0.44 Ig(CFU/wound site)
  ΔIg(CFU/wound site) vs 24 h infection control: −1.36 ± 0.54 Ig(CFU/wound site)
S. aureus NRS 384; Study III, 24 h p.i., 1 mg/ml, 10 μL/wound site, 10 μg/wound site, inoculum 2.50E+06 CFU/wound site
  Ig (CFU/wound site): 7.67 ± 0.24 Ig (CFU/wound site)
S. aureus NRS 384; Study III, 24 h p.i., 1 mg/ml, 10 μL/wound site
  ΔIg(CFU/wound site) vs infection control: −1.11 ± 0.24 Ig(CFU/wound site)
S. aureus NRS 384; Study III, 24 h p.i., 1 mg/ml, 50 μL/wound site, 50 μg/wound site
  Ig (CFU/wound site): 4.37 ± 0.26 Ig (CFU/wound site)
S. aureus NRS 384; Study III, 24 h p.i., 1 mg/ml, 50 μL/wound site
  ΔIg(CFU/wound site) vs infection control: −4.40 ± 0.26 Ig(CFU/wound site)
S. aureus NRS 384; [20]
  Ig (CFU/wound site): 5.29 ± 0.77 Ig (CFU/wound site)
  ΔIg(CFU/wound site) vs infection control: −3.28 ± 0.77 Ig(CFU/wound site)
S. aureus NRS 384; [21]
  Ig (CFU/wound site): 5.12 ± 0.65 Ig (CFU/wound site)
  ΔIg(CFU/wound site) vs infection control: −2.83 ± 0.65 Ig(CFU/wound site)
S. aureus NRS 384; [22]
  Ig (CFU/wound site): 6.07 ± 0.52 Ig(CFU/wound site)
  ΔIg(CFU/wound site) vs infection control: −2.39 ± 0.52 Ig(CFU/wound site)
S. aureus NRS 384; [23]
  Ig (CFU/wound site): 5.05 ± 0.20 Ig(CFU/wound site)
  ΔIg(CFU/wound site) vs infection control: −3.22 ± 0.20 Ig(CFU/wound site)

## C[C@H]1COc2c(N3CCN(C)CC3)c(F)cc3c(=O)c(C(=O)O)cn1c23 [levofloxacin]
Acinetobacter baumannii
  MIC: 4 µg/mL (≈ 11.1 µM)
Enterococcus faecalis; ATCC29212, E. faecalis (ATCC 29212)
  MIC: 1 µg/mL (≈ 2.77 µM)
Enterococcus faecalis; ATCC51299, E. faecalis (ATCC 51299)
  MIC: 0.5 µg/mL (≈ 1.38 µM)
Escherichia coli; ATCC25922, E. coli (ATCC 25922)
  MIC: 0.015 µg/mL (≈ 0.0415 µM)
Escherichia coli; ATCCBAA2452, E. coli (ATCC BAA-2452)
  MIC: 0.03 µg/mL (≈ 0.083 µM)
Klebsiella pneumoniae; ATCC700603, K. pneumoniae (ATCC 700603)
  MIC: 0.5 µg/mL (≈ 1.38 µM)
Klebsiella pneumoniae; BAA1705, K. pneumoniae (ATCC BAA 1705)
  MIC: > 8 µg/mL
Pseudomonas aeruginosa
  MIC: 1 µg/mL (≈ 2.77 µM)
Staphylococcus aureus
  MIC: 0.12 µg/mL (≈ 0.332 µM)
